# Measured values published in EP4644396A1 (Visionpharma (Nantong) Co., Ltd, priority 2022, dated 2024).
# Molecular target: T1, human TLR8 (Homo sapiens, UniProt Q9NR97)
# T1 construct: expressed in transfected cells
# T1 sequence (Q9NR97 27-1041): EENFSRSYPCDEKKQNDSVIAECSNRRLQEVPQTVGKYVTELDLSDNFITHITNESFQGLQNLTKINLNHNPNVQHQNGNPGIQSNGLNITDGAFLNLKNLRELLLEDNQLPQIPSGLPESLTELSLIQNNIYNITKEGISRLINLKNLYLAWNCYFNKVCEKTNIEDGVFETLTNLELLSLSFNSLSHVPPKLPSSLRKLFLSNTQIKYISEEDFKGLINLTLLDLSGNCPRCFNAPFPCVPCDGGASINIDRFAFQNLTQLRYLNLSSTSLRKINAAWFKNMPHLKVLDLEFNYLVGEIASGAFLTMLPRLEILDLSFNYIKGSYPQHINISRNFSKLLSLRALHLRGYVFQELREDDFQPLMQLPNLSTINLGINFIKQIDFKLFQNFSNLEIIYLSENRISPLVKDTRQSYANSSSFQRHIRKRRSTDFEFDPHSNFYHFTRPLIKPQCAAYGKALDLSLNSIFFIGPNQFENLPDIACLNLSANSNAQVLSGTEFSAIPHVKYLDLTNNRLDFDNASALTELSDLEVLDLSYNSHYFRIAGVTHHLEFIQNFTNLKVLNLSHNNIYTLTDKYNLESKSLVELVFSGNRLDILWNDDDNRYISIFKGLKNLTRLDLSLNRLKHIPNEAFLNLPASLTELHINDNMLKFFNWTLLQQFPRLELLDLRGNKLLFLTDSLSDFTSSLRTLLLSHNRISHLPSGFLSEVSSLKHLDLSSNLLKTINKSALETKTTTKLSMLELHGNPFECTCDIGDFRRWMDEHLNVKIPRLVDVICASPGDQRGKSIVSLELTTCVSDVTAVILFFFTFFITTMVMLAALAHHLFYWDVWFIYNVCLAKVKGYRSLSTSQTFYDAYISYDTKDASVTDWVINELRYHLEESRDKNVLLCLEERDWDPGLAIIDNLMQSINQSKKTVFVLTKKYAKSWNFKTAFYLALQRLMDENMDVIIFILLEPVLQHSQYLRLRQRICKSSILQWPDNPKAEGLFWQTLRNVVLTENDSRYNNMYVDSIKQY
# Assay: HEK-Blue hTLR8 SEAP reporter gene inhibition assay
# Assay type: cell-based
# Conditions: HEK-Blue hTLR8 IC50 (µM)
# Procedure: HEK-Blue cells with stable expression of human TLR7 or TLR8 were used in the evaluation of inhibitory activity of compounds in the present invention against TLR7 or TLR8, by using its ability to induce the SEAP reporting gene under the control of the fusion of IFN-β minimum promoters into five NF-κB and ap-1 binding sites, as follows: hTLR7 HEK-Blue cells (Invivogen, 80, 000 cells per well) or hTLR8 HEK-Blue cells (60, 000 cells per well) were added to a 96-well cell culture plate. A solution of the testing compounds were added to each well, with the final concentration of tested compounds in the medium ranged from 0.001 to 36 µM and the culture was incubated for 15 minutes. M5049 was used as positive controls in the testing.
# Then a TLR7 ligand (Gardiquimod, purchased from MedChemExpress, with final concentration of ligand in cell culture medium kept at 10 µM) or a TLR8 ligand (purchased from MedChemExpress with final concentration in cell culture media at 10 µM) and the culture was incubated for 20 hours. According to the manufacturer's instructions, a HEK-Blue reagent Quanti-blue (Invivogen) was used to detect the SEAP levels in cell cultures. The half […] concentration or IC50 was calculated by using GraphPad Prism. […] Table 1: Activities of examples in this invention to hTLR7/8 in HEK-Blue Cells
row,Compound,IC50
1,C[C@@H]1CN(c2ccc(C#N)n3ncc(F)c23)Cc2c3c(nn21)CN(Cc1ccn[nH]1)CC3 [Example I-29],< 0.1 µM

# Same assay, conditions: hTLR8 HEK-Blue cells, TLR8 ligand 10 µM, 20 hours, SEAP by Quanti-blue; class symbols; read-out: HEK-Blue hTLR8 IC50
row,Compound,IC50
1,"4-((4R,9S)-4,9-dimethyl-8-((2R,6R)-6-methylmorpholine-2-carbonyl)-3,4,7,8,9,10-hexahydropyrido[3',4':3,4]pyrazolo[1,5-a]pyrazin-2(1H)-yl)-3-fluoropyrazolo[1,5-a]pyridine-7-carbonitrile [Example I-122]",< 0.1 µM
2,"4-((4R,9S)-8-(L-prolyl)-4,9-dimethyl-3,4,7,8,9,10-hexahydropyrido[3',4':3,4]pyrazolo [1,5-a]pyrazin-2(1H)-yl)-3-fluoropyrazolo[1,5-a]pyridine-7-carbonitrile [Example I-114]",< 0.1 µM
3,"CCC1CN(c2ccc(C#N)n3ncc(F)c23)Cc2c3c(nn21)CNCC3 (stereo not shown) [Example I-17, 4-(4-Ethyl-3,4,7,8,9,10-hexahydropyrido[3',4':3,4]pyrazolo[1,5-a]pyrazin-2(1H)-yl)-3-fluoropyrazolo[1,5-a]pyridine-7-carbonitrile]",> 0.1 µM
4,"C[C@@H]1CN(c2ccc(C#N)n3ncc(F)c23)Cc2c3c(nn21)CN(CCO)CC3 [Example I-19, (R)-3-Fluoro-4-(8-(2-hydroxyethyl)-4-methyl-3,4,7,8,9,10-hexahydropyrido[3',4':3,4]pyrazolo[1,5-a]pyrazin-2(1H)-yl)pyrazolo[1,5-a]pyridine-7-carbonitrile]",> 0.1 µM
5,"C[C@@H]1CN(c2ccc(C#N)n3ncc(F)c23)Cc2c3c(nn21)CC(N)CC3 (stereo partly drawn) [Example I-20, 4-((4R)-8-amino-4-methyl-3,4,7,8,9,10-hexahydropyrazino[1,2-b]indazol-2(1H)-yl)-3-fluoropyrazolo[1,5-a]pyridine-7-carbonitrile]",< 0.1 µM
6,"C[C@@H]1CN(c2ccc(C#N)n3ncc(F)c23)Cc2c3c(nn21)CC(N1CCOCC1)CC3 (stereo partly drawn) [Example I-31, 3-Fluoro-4-((4R)-4-methyl-8-morpholino-3,4,7,8,9,10-hexahydropyrazino[1,2-b]indazol-2(1H)-yl)pyrazolo[1,5-a]pyridine-7-carbonitrile]",< 0.1 µM
7,"C[C@@H]1CN(c2ccc(C#N)n3ncc(F)c23)Cc2c3c(nn21)CN(C1CCNCC1O)C(=O)C3 (stereo partly drawn) [Example I-32, 3-Fluoro-4-((4R)-8-(3-hydroxypiperidin-4-yl)-4-methyl-9-oxo-3,4,7,8,9,10-hexahydropyrido[3',4':3,4]pyrazolo[1,5-a]pyrazin-2(1H)-yl)pyrazolo[1,5-a]pyridine-7-carbonitrile]",< 0.1 µM
8,"C[C@@H]1CN(c2ccc(C#N)n3ncc(F)c23)Cc2c3c(nn21)C(CO)CNC3 (stereo partly drawn) [Example I-35, 3-Fluoro-4-((7R)-4-(hydroxymethyl)-7-methyl-1,3,4,7,8,10-hexahydropyrido[4',3':3,4]pyrazolo[1,5-a]pyrazin-9(2H)-yl)pyrazolo[1,5-a]pyridine-7-carbonitrile]",< 0.1 µM
9,"C[C@@H]1CN(c2ccc(C#N)n3ncc(F)c23)Cc2c3c(nn21)CC(CO)NC3 (stereo partly drawn) [Example I-36, 3-Fluoro-4-((7R)-3-(hydroxymethyl)-7-methyl-1,3,4,7,8,10-hexahydropyrido[4',3':3,4]pyrazolo[1,5-a]pyrazin-9(2H)-yl)pyrazolo[1,5-a]pyridine-7-carbonitrile]",< 0.1 µM
10,"C[C@@H]1CN(c2ccc(C#N)n3ncc(F)c23)Cc2c3c(nn21)CC(N)C(O)C3 (stereo partly drawn) [Example I-37, 4-((4R)-8-amino-9-hydroxy-4-methyl-3,4,7,8,9,10-hexahydropyrazino [1,2-b]indazol-2(1H)-yl)-3-fluoropyrazolo[1,5-a]pyridine-7-carbonitrile]",< 0.1 µM
11,"C[C@@H]1CN(c2ccc(C#N)n3ncc(F)c23)Cc2c3c(nn21)CNCC3O (stereo partly drawn) [Example I-38, 3-Fluoro-4-((4R)-10-hydroxy-4-methyl-3,4,7,8,9,10-hexahydropyrido[3',4':3,4]pyrazolo[1,5-a]pyrazin-2(1H)-yl)pyrazolo[1,5-a]pyridine-7-carbonitrile]",> 0.1 µM
12,"C[C@@H]1CN(c2ccc(C#N)n3ncc(F)c23)Cc2c3c(nn21)CC1CCC3N1 (stereo partly drawn) [Example I-44, 3-Fluoro-4-((4R)-4-methyl-1,3,4,7,8,9,10,11-octahydro-2H-8,11-epiminocyclohepta [3,4]pyrazolo[1,5-a]pyrazin-2-yl)pyrazolo[1,5-a]pyridine-7-carbonitrile]",< 0.1 µM
13,"C[C@@H]1CN(c2ccc(C#N)n3ncc(F)c23)Cc2c3c(nn21)CCNC3CO (stereo partly drawn) [Example I-46, 3-fluoro-4-((7R)-1-(hydroxymethyl)-7-methyl-1,3,4,7,8,10-hexahydropyrido[4',3':3,4]pyrazolo[1,5-a]pyrazin-9(2H)-yl)pyrazolo[1,5-a]pyridine-7-carbonitrile]",< 0.1 µM
14,"C[C@@H]1CN(c2ccc(C#N)n3ncc(F)c23)Cc2c3c(nn21)CC(CN1CCOCC1)NC3 (stereo partly drawn) [Example I-47, 3-Fluoro-4-((7R)-7-methyl-3-(morpholinomethyl)-1,3,4,7,8,10-hexahydropyrido [4',3':3,4]pyrazolo[1,5-a]pyrazin-9(2H)-yl)pyrazolo[1,5-a]pyridine-7-carbonitrile]",> 0.1 µM

# More lines, now with the values ahead:
row,IC50,Compound
1,< 0.1 µM,"CC(C)CC1NCCc2c1nn1c2CN(c2ccc(C#N)n3ncc(F)c23)C[C@H]1C (stereo partly drawn) [Example I-69, 3-Fluoro-4-((4R)-7-isobutyl-4-methyl-3,4,7,8,9,10-hexahydropyrido[3',4':3,4]pyrazolo [1,5-a]pyrazin-2(1H)-yl)pyrazolo[1,5-a]pyridine-7-carbonitrile]"
2,< 0.1 µM,"CC(C)C1NCCc2c1nn1c2CN(c2ccc(C#N)n3ncc(F)c23)C[C@H]1C (stereo partly drawn) [Example I-70, 3-Fluoro-4-((4R)-7-isopropyl-4-methyl-3,4,7,8,9,10-hexahydropyrido[3',4':3,4]pyrazolo[1,5-a]pyrazin-2(1H)-yl)pyrazolo[1,5-a]pyridine-7-carbonitrile]"
3,< 0.1 µM,"C[C@@H]1CN(c2ccc(C#N)n3ncc(F)c23)Cc2c3c(nn21)CC(C)(N)CC3 (stereo partly drawn) [Example I-71, 4-((4R)-8-amino-4,8-dimethyl-3,4,7,8,9,10-hexahydropyrazino[1,2-b]indazol-2(1H)-yl)-3-fluoropyrazolo[1,5-a]pyridine-7-carbonitrile]"
4,< 0.1 µM,"C[C@@H]1CN(c2ccc(C#N)n3ncc(F)c23)Cc2c3c(nn21)CC(C)(C)NC3 [Example I-78, (R)-3-Fluoro-4-(3,3,7-trimethyl-1,3,4,7,8,10-hexahydropyrido[4',3':3,4]pyrazolo [1,5-a]pyrazin-9(2H)-yl)pyrazolo[1,5-a]pyridine-7-carbonitrile]"
5,< 0.1 µM,"COC[C@@H]1CCCN1CC(=O)N1Cc2nn3c(c2C[C@@H]1C)CN(c1ccc(C#N)n2ncc(F)c12)C[C@H]3C [Example I-109, 3-Fluoro-4-((4R,9S)-8-(2-((S)-2-(methoxymethyl)pyrrolidin-1-yl)acetyl)-4,9-dimethyl-3,4,7,8,9,10-hexahydropyrido[3',4':3,4]pyrazolo[1,5-a]pyrazin-2(1H)-yl)pyrazolo[1,5-a]pyridine-7-carbonitrile]"
6,< 0.1 µM,"C[C@@H]1CN(c2ccc(C#N)n3ncc(F)c23)Cc2c3c(nn21)CN(CC(=O)N1C[C@H](C)N[C@@H](C)C1)[C@@H](C)C3 [Example I-145, 4-((4R,9S)-8-(2-((3S,5S)-3,5-dimethylpiperazin-1-yl)-2-oxoethyl)-4,9-dimethyl-3,4,7,8,9,10-hexahydropyrido[3',4':3,4]pyrazolo[1,5-a]pyrazin-2(1H)-yl)-3-fluoropyrazolo[1,5-a]pyridine-7-carbonitrile]"
7,< 0.1 µM,"C[C@@H]1CN(c2ccc(C#N)n3ncc(F)c23)Cc2c3c(nn21)CC(N)CCC3 (stereo partly drawn) [Example I-214, 4-((4R)-8-amino-4-methyl-1,3,4,7,8,9,10,11-octahydro-2H-cyclohepta[3,4]pyrazolo[1,5-a]pyrazin-2-yl)-3-fluoropyrazolo[1,5-a]pyridine-7-carbonitrile]"
